Source: patent US9376380B2 (University of Pittsburgh—Of the Commonwealth System of …, priority 2011, dated 2016)
pIC50, pKi: −log10 of the molar value. “Also recorded” adds a separate entry of the source. Where two headings read alike, the source gives them in different places.

Assays:
[1] = test system: peripheral blood mononuclear cell (PBMC); experiment: Cytotoxicity on normal human PBMC, trypan blue exclusion; assay type: cell-based; conditions: 3 days
Description: Peripheral blood was drawn in a heparinized syringe from healthy fasting volunteers who had been without medication for at least 2 weeks. The peripheral blood mononuclear cell (PBMC) fraction was obtained by gradient centrifugation over Ficoll-Hypaque (Amersham), as described by Feng, R. et al. S. KD5170, a novel mercaptoketone-based histone deacetylase inhibitor, exerts antimyeloma effects by DNA damage and mitochondrial signaling, Mol. Cancer Ther. 2008, 7, 1494-1505. […] The compounds in a stock solution (50 mMin DMSO) were diluted with the culture medium to application conditions and further used for the treatment of PBMC for 3 days. The final DMSO concentrations are always 0.02%. After treatment for 72 h, cell viability was determined using trypan blue exclusion assay. These human cell studies conformed to the guidelines of the Institutional Review Board of the University of Pittsburgh, Pa.

CB1 receptor = target: T1, CB1 receptor (Homo sapiens, UniProt P21554); experiment: [3H]CP-55,940 radioligand competition binding, CB1; conditions: [3H]CP-55,940 displacement; read-out: Ki (CB1)
T1 construct: host or cells: cell membrane preparations
T1 sequence (P21554 whole entry): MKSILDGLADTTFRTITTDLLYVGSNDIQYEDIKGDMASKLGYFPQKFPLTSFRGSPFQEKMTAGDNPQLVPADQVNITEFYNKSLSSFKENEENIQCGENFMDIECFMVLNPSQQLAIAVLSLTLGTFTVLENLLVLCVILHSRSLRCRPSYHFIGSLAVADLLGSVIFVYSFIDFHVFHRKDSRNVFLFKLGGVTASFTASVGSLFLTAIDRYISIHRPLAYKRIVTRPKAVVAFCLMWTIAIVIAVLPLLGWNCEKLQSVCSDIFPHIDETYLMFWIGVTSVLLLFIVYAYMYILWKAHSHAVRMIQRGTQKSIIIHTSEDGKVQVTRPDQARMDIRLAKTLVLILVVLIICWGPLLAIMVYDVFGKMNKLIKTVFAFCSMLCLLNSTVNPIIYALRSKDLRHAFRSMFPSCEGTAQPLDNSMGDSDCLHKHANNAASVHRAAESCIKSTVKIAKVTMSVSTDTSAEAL
Protocol: (§4) Briefly, the bioassay is carried out using the Perkin Elmer 96-well Top Counter. […] The procedure is as follows.
(§5) In competition binding experiments, the tested compound dilutions are carried out in duplicate in TME buffer (25 mM Tris, 5 mM MgCl2, 1 mM EDTA) containing 0.1% (w/v) fatty acid free bovine serum albumin (BSA), pH 7.4. […] TME buffer and cell membrane preparations expressing CB receptors (5 μg per well) are added to a final volume of 200 μL. […] After the binding suspensions are incubated at 30° C. for 1 hr, the reaction is terminated by rapid filtration through microfiltration plates (Unifilter GF/B filterplate, PerkinElmer), followed by 5 washes with ice cold TME buffer containing 0.1% BSA on a Packard Filtermate Harvester (PerkinElmer). The plates are then dried overnight and 30 μl MicroScint 0 scintillation cocktail is added to each well of the dried filter plates. The bound radioactivity is then counted using a Perkin Elmer 96-well TopCounter. […] This assay is used for determination of the binding affinity parameters (Ki) of ligand-receptor interactions for the CB receptor.

RAW 264.7 cells = experiment: RANKL-induced osteoclast differentiation on RAW 264.7 cells (TRAP); assay type: cell-based, mouse; conditions: for inhibition of RANKL-induced osteoclastogenesis, dose dependence: RANKL 15 ng/mL, 5 days; for inhibition activity at low dose / inhibition at 1 µM: 1 μM; for inhibition at 1 µM / inhibition at 0.1 µM / inhibition at 10 µM: Mus musculus, RAW264.7, read-out: inhibition rate of osteoclast formation
Description: FIG. 5. Anti-osteoclastogenesis activity of exemplary compounds. […] The bar indicates the SD. (B) Photographs of cells in the test of compound 93 (original magnification 100×).

CB2 receptor [2] = target: T2, CB2 receptor (Homo sapiens, UniProt P34972); experiment: [3H]CP-55,940 radioligand competition binding, CB2; design: host or cells: cell membrane preparations; conditions: for SI: selectivity index for CB2: Ki(CB1)/Ki(CB2) ratio
T2 sequence (P34972 whole entry): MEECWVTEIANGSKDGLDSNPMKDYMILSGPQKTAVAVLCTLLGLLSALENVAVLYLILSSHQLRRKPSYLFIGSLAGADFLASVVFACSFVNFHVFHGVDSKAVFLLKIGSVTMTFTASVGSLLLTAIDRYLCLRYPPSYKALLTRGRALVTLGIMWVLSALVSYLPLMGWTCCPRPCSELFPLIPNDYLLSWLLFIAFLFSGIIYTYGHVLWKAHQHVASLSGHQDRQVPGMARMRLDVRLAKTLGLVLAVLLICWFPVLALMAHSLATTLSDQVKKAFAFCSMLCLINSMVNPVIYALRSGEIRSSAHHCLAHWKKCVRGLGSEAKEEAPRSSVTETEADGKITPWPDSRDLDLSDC
Protocol: as §4, §5

Human MM cell U266 = experiment: [3H]-thymidine uptake cell proliferation assay, U266; assay type: cell-based; conditions: for inhibition of DNA synthesis in MM cells: U266, 0-10 μmol/L, 48 h
Protocol: (§1) FIG. 2. Inhibitory effects of CB2 ligands on human MM cell growth. Human MM cell U266 (3×10^4 cells per well in 96-well plate) was exposed to the known CB2 ligands (A) or PAM (B) at indicated concentrations (0-10 μmol/L) for 48 h. Cell proliferation was measured by [^3H]-thymidine uptake assay as described in Materials and Methods. (C) U266 cells (3×10^4 per well in 96-well plate) were treated with PAM at indicated doses for 48 h. Cell viability and the viable cell number per well were determined using trypan blue exclusion assay. (D) Human chemoresistant myeloma cell lines MM.1R (dexamethasone), RPMI-8226/LR5 (melphalan) and their respective parent cells MM.1S and RPMI-8226 were exposed to PAM for 48 h. Cell proliferation was measured by ^3H-thymidine incorporation. The data presented are the mean±SD of at least 3 independent measurements. (E) [S^35]-GTPγS binding assay of different ligands on human CB2 receptor expressed in CHO cells.
(§2) A tritiated thymidine incorporation assay was carried out to investigate the effects of CB2 ligands on cell proliferation. U266, RPMI-8226 (3×10^4 cells/well), MM.1 S cells (6×10^4 cells/well), and their resistant sublines were cultured in 96-well culture plates with or without drugs for 48 hours. DNA synthesis was measured by ^3H-thymidine uptake as described previously.

MM cells = experiment: Apoptosis and cell cycle protein studies in MM cells; assay type: cell-based
Description: Since drug resistance is a prevalent problem in multiple myeloma clinical treatment, the ability of compounds according to this invention to overcome chemoresistance of MM cells against conventional drugs such as dexamethasone or melphalan provides an unexpected advantageous benefit in MM treatment. The present inventors have hypothesized that the cell inhibitory activity of the inventive compounds is due to their ability to activate apoptotic processes.
Compound (1) also altered certain proteins that are known to play a role in the cell-growth cycle. […] To further explore this observation, the present inventors investigated the effect of compound (1) on several proteins involved in cell G2-M phase transition.

[3] = test system: MM.1R (dexamethasone) and RPMI-8226/LR5 (melphalan) cells; experiment: [3H]-thymidine incorporation, chemoresistant myeloma cell lines; assay type: cell-based; conditions: Homo sapiens; MM.1R and RPMI-8226/LR5, 48 h; read-out: growth inhibition of chemoresistant myeloma cell lines, IC50
Protocol: as §1, §2

[4] = test system: MM.1S and RPMI-8226 cells; experiment: [3H]-thymidine incorporation, parent myeloma cell lines; assay type: cell-based, human; conditions: MM.1S and RPMI-8226, 48 h
Protocol: as §1, §2

[5] = test system: bone marrow mononuclear cells (MNC); experiment: RANKL-induced osteoclast formation in bone marrow mononuclear cells; assay type: cell-based, murine and human
Protocol: FIG. 4. Effects of XIE35 and compound (1) on RANKL-induced osteoclast formation in bone marrow mononuclear cells (MNC). […] Half-medium change was performed every other day using drug-containing media where appropriate. After 5 days, the cells were fixed and stained for TRAP activity using a TRAP-staining kit (Sigma-Aldrich) according to the manufacturer's instructions. Lower panel: Human bone marrow MNCs (1×10^5 per well) were treated with rhRANKL (50 ng/ml) plus rhM-CSF (10 ng/ml), and the respective compounds as described above. After three weeks, differentiation into OCLs was assessed by staining with monoclonal antibody 23c6 using a Vectastatin-ABC-AP kit (Vector Laboratories). The antibody 23c6, which recognizes CD51/61 dimer constituting the OCL vitronectin receptor, was kindly provided by the Bone Biology Center of our university. Images were obtained with an Olympus IX70 microscope. Arrows designate the typical multinucleated osteoclasts with 3 or more nuclei.

[6] = test system: MM1.S cells expressing shRNA against human CB2; experiment: Proliferation in CB2 knockdown MM1.S cells; assay type: cell-based; conditions: 48 h, [3H]TdR uptake
Protocol: (§3) FIG. 3. Inhibitory activity of PAM (compound (1)) in CB2 knockdown or agonist treated cells. (A) CB2 gene silencing in MM1.S cells confirmed by Western blot with CB2antibody. (B) Human MM1.S cells expressing shRNA vector or expressing the specific shRNA against human CB2 were treated with vehicle control (white column), or the indicated concentrations of PAM (black column) for 48 h. Cell proliferation was measured by [^3H]TdR uptake. […] The cell viability and the viable cells/well were determined using trypan blue exclusion assay.

U266 cells = experiment: Trypan blue viability of U266 cells with CB2 agonist; assay type: cell-based, human; conditions: Win55212-2 or CP55940, 48 h
Protocol: as §3

CB2 receptor [7] = target: T2, CB2 receptor; experiment: Cell-based cAMP assay
Description: Cell-based cAMP assays were used to identify the mode by which the CB2 ligands according to the present invention modulate CB2 receptor.

[8] = target: T3, human CB2 receptor expressed in CHO cells (Homo sapiens, UniProt P34972); experiment: [35S]-GTPγS binding assay; assay type: biochemical
T3 construct: expressed in transfected cells; host or cells: CHO cells
T3 sequence (P34972 whole entry): as above

[9] = [3H]CP-55,940 displacement, read-out: Ki (CB2)

## CC(C)Oc1ccc(C(NC(=O)Cc2ccccc2)NC(=O)Cc2ccccc2)cc1 [Compound 12, N,N′-((4-isopropoxyphenyl)methylene)bis(2-phenylacetamide)]
[1]
  cell viability vs vehicle control: not significantly affected

## CCN(CC)c1ccc(CN(C23CC4CC(CC(C4)C2)C3)S(=O)(=O)c2cccc(C)c2)cc1 [Compound 61, N-((3s,5s,7s)-Adamantan-1-yl)-N-(4-(diethylamino)benzyl)-3-methylbenzenesulfonamide]
CB1 receptor
  pKi: 5.08
RAW 264.7 cells
  inhibition of RANKL-induced osteoclastogenesis, dose dependence: dose-dependent manner
CB2 receptor [2]
  pKi: 7.72

## COc1ccc(C(=O)c2c(C)n(CCN3CCOCC3)c3cc(I)ccc23)cc1 [AM630]
Human MM cell U266
  inhibition of DNA synthesis in MM cells: dose dependent inhibition

## CCN(CC)c1ccc(CN(c2ccc(Cl)cc2)S(=O)(=O)c2ccc(OC)cc2)cc1 [Compound 84, N-(4-Chlorophenyl)-N-(4-(diethylamino)benzyl)-4-methoxybenzenesulfonamide]
CB1 receptor
  pKi: < 4.70
[1]; 5 μM
  effect on cell viability: only slight effect on cell viability
[1]; 1.25 and 2.5 μM
  cell viability vs vehicle control: not significantly affected
[1]; 5 and 10 μM
  effects on cell viability: only some effects on cell viability
[1]
  cell viability vs vehicle control: not significantly affected
RAW 264.7 cells
  inhibition activity at low dose: good inhibition activity
  inhibition at 1 µM: 97%
  inhibition of RANKL-induced osteoclastogenesis, dose dependence: dose-dependent manner
CB2 receptor [2]
  SI: selectivity index for CB2: >1,428
CB2 receptor [2]; [9]
  pKi: 7.85

## CCN(CC)c1ccc(C(NC(=O)Cc2ccccc2)NC(=O)Cc2ccccc2)cc1 [Compound 17, N,N′-((4-(diethylamino)phenyl)methylene)bis(2-phenylacetamide)]
[1]; 1 μM
  cytotoxic effects: did not show any cytotoxic effects
[1]; 10 μM
  effects on cell viability: only slight effects on cell viability
[1]
  cell viability vs vehicle control: not significantly affected
RAW 264.7 cells
  inhibition at 0.1 µM: 72%
  inhibition at 1 µM: 79%
  inhibition at 10 µM: 84%
CB2 receptor [2]
  SI: selectivity index for CB2: >313
CB2 receptor [2]; [9]
  pKi: 7.19

## CCN(CC)c1ccc(CN(c2ccc(C)cc2)S(=O)(=O)c2ccc(OC)cc2)cc1 [Compound 93, N-(4-(Diethylamino)benzyl)-4-methoxy-N-(p-tolyl)benzenesulfonamide]
CB1 receptor
  pKi: 5.89
[1]; 1.25 and 2.5 μM
  cell viability vs vehicle control: not significantly affected
[1]; 5 and 10 μM
  effects on cell viability: only some effects on cell viability
[1]
  cell viability vs vehicle control: not significantly affected
RAW 264.7 cells
  inhibition activity at low dose: good inhibition activity
  inhibition at 0.1 µM: 46%
  inhibition at 1 µM: 97%
  inhibition at 10 µM: 100%
  inhibition of RANKL-induced osteoclastogenesis, dose dependence: dose-dependent manner
CB2 receptor [2]
  SI: selectivity index for CB2: 2594
CB2 receptor [2]; [9]
  pKi: 9.30

## CCCCCCC(C)(C)c1cc(OC)c([C@@H]2C=C(CO)[C@@H]3C[C@H]2C3(C)C)c(OC)c1 [Hu308]
Human MM cell U266
  inhibition of DNA synthesis in MM cells: no effect

## CC(C)c1ccc(C(NC(=O)Cc2ccccc2)NC(=O)Cc2ccccc2)cc1 [Compound 9, N,N′-((4-isopropylphenyl)methylene)bis(2-phenylacetamide)]
[1]
  cell viability vs vehicle control: not significantly affected

## CN(C)c1ccc(C(NC(=O)Cc2ccccc2)NC(=O)Cc2ccccc2)cc1 [Compound 1, N,N′-((4-(dimethylamino)phenyl)methylene)bis(2-phenylacetamide)]
MM cells
  ER stress-induced transcription factor CHOP: transiently upregulated
  H2A.X phosphorylation: did not have any effect
  MAPK family members in treated MM cells: not up regulated
  effect on Cdc25C activation of Cdc2: prevents the tyrosine phosphatase Cdc25C from activating cyclin-B bound Cdc2
MM cells; various concentrations
  number of cells in the G0-G1 phase: does not change
  number of cells in the S-phase and G2-M phase: decreased in a dose dependent manner
CB2 receptor [2]
  SI: selectivity index for CB2: >26
CB2 receptor [2]; [9]
  pKi: 6.11
[3]
  pIC50: 5.92 to 6.22
[4]
  growth inhibitory effect on parent cells: no growth inhibitory effect
[5]; 1 μM, murine 5 days, human three weeks
  RANKL/M-CSF induced osteoclast formation: anti-osteoclast activity; also recorded: completely blocking osteoclast formation
[5]; concentrations as high as 1 μM
  toxicity: non-toxic
[6]
  anti-MM activity after stable knockout of CB2: largely abrogated
U266 cells
  inhibition of MM cell growth after pretreatment with CB2 agonist: attenuated
CB2 receptor [7]
  mode of CB2 modulation (c-AMP studies): inverse agonist
Human MM cell U266; Homo sapiens, U-266, U266, 48 h, [3H]-thymidine uptake, read-out: inhibition of DNA synthesis in MM cells, IC50
  pIC50: 5.90
[8]
  CB2 receptor modulatory activity ([35S]-GTPγS): inverse CB2 receptor agonist

## CCN(CC)c1ccc(CN(C(=O)Cc2ccc(Cl)cc2)c2ccc(C)cc2)cc1 [Compound 98, 2-(4-Chlorophenyl)-N-(4-(diethylamino)benzyl)-N-(p-tolyl)acetamide]
CB1 receptor
  pKi: 5.49
CB2 receptor [2]
  SI: selectivity index for CB2: 29
CB2 receptor [2]; [9]
  pKi: 6.97
